Patent US8426616B2, “Triptolide lactone ring derivatives as immunomodulators and anticancer agents” (priority 2004, dated 2013)
Entries after “also recorded” stand apart in the source; their conditions may differ.

Legend:
[1] = test system: human T cell lymphoma (Jurkat) cells; conditions: for cytotoxic activity (MTT assay), compound incubated in human serum: pre-incubation in human serum; for cytotoxic activity (MTT assay, OD570): 24 h culture with compound
Method: Test compounds were dissolved in DMSO at a concentration of 20 mM. Further dilutions were done in RPMI1640 medium (GIBCO, Rockville, Md.) supplemented with 10% Fetal Calf Serum (HyClone Laboratories, Logan, Utah).
Cytotoxicity of the compounds was determined in a standard MTT assay using Cell Proliferation Kit I (#1 465 007, Roche Diagnostics, Mannheim, Germany). Briefly, human T cell lymphoma (Jurkat) cells (4×10^5 per well) were cultured for 24 h, in 96-well tissue culture plates, in the presence of serial three-fold dilutions of test compounds or medium containing the same concentration of DMSO as in the test samples at each dilution point. The cultures were then supplemented with 10 μl/well MTT reagent for 4 h and then with 0.1 ml/well solubilizing reagent for an additional 16 h. Optical density at 570 nm (OD570) was measured on a ThermoScan microplate reader (Molecular Devices, Menlo Park, Calif.).
The data is presented as OD570 values versus concentration of the compounds. In this case, data is provided for both compounds incubated in human serum and in mouse serum, and for PG796 without incubation.

[2] = test system: IL-2 production in Jurkat cells; format: cell-based, human; conditions: for inhibition of IL-2 production, compound incubated in human serum: pre-incubation in human serum; for inhibition of IL-2 production: Jurkat cells stimulated with anti-CD3 and PMA, 24 h
Method: Test samples were diluted to 1 mM in complete tissue culture medium. […] Cells from an exponentially expanding culture of Jurkat human T cell line (#TIB-152 obtained from American Type Culture Collection, Manassas, Va.) were harvested, washed once by centrifugation, re-suspended in complete tissue culture medium, and diluted to a concentration of 2×10^6 cells/ml. A volume of 50 μl of Jurkat cells (1×10^5 cells) was added to wells containing 100 μl of the diluted compounds, 50 μl of PMA (10 ng/ml) was added to each well, and the plates were incubated at 37° C. in a 5% CO2 incubator. After 24 hours, the plates were centrifuged to pellet the cells, 150 μl of supernatant was removed from each well, and the samples were stored at −20° C. The stored supernatants were analyzed for human IL-2 concentration using the Luminex 100 (Luminex Corporation, Austin, Tex.), Luminex microspheres coupled with anti-IL-2 capture antibody, and fluorochrome-coupled anti-IL-2 detection antibody. The data were expressed as pg/ml of IL-2.
The data were plotted as the concentration of compound versus IL-2 concentration. In this case, data is provided for both compounds incubated in human serum and in mouse serum, and for PG796 without incubation.

CC(C)[C@]12O[C@H]1[C@@H]1O[C@]13[C@]1(O[C@H]1C[C@H]1C4=C(CC[C@@]13C)C(=O)OC4)[C@@H]2OC(=O)CCC(=O)O [triptolide 14-succinate, reference compound]
cytotoxic activity (MTT assay), compound incubated in human serum [1]: much less active in these assays than triptolide 14-succinate incubated in mouse serum
inhibition of IL-2 production, compound incubated in human serum ([2]; Jurkat cells): much less active in these assays than triptolide 14-succinate incubated in mouse serum

CC1OC(=O)C2=C1[C@@H]1C[C@@H]3O[C@@]34[C@H](O)[C@@]3(C(C)C)O[C@H]3[C@@H]3O[C@@]34[C@@]1(C)CC2 (stereo partly drawn) [PG795, 19-methyl triptolide]
cytotoxic activity (MTT assay, OD570) [1]: cytotoxic to Jurkat cells; also recorded: significant activity; also recorded: less active than triptolide
inhibition of IL-2 production [2]: significant activity; also recorded: less active than triptolide; also recorded: inhibited IL-2 production

CC(C)[C@]12O[C@H]1[C@@H]1O[C@]13[C@]1(O[C@H]1C[C@H]1c4c(C(=O)c5ccccc5)oc(OC(=O)c5ccccc5)c4CC[C@@]13C)[C@@H]2O [PG796, 18-deoxo-19-dehydro-18-benzoyloxy-19-benzoyl triptolide]
cytotoxic activity (MTT assay, OD570) [1]: cytotoxic to Jurkat cells; also recorded: higher level of activity in both assays than the known prodrug, triptolide 14-succinate
cytotoxic activity (MTT assay), compound incubated in human serum [1]: high, and essentially equivalent, activity
cytotoxic activity (MTT assay), compound incubated in mouse serum ([1]; pre-incubation in mouse serum): high, and essentially equivalent, activity
cytotoxic activity (MTT assay), compound unincubated ([1]; without serum incubation, compared with serum-incubated compound): nearly equivalent activity
inhibition of IL-2 production [2]: higher level of activity in both assays than the known prodrug, triptolide 14-succinate; also recorded: inhibited IL-2 production
inhibition of IL-2 production, compound incubated in human serum ([2]; Jurkat cells): high, and essentially equivalent, activity
inhibition of IL-2 production, compound incubated in mouse serum ([2]; Jurkat cells, pre-incubation in mouse serum): high, and essentially equivalent, activity
inhibition of IL-2 production, compound unincubated ([2]; Jurkat cells, without serum incubation, compared with serum-incubated compound): nearly equivalent activity
